The text below walks through data of article PMC8604788 (ACS chemical biology, 2021).

Each structure is given as a SMILES string.

By IC50 is commonly meant the midpoint of a concentration-inhibition curve. Low values mean greater potency in that assay, high ones weaker potency in that assay.

This assay addresses T1, proline utilization A (SmPutA), bifunctional PRODH-GSALDH enzyme (Sinorhizobium meliloti, UniProt F7X6I3).
T1 sequence (F7X6I3 1-1233): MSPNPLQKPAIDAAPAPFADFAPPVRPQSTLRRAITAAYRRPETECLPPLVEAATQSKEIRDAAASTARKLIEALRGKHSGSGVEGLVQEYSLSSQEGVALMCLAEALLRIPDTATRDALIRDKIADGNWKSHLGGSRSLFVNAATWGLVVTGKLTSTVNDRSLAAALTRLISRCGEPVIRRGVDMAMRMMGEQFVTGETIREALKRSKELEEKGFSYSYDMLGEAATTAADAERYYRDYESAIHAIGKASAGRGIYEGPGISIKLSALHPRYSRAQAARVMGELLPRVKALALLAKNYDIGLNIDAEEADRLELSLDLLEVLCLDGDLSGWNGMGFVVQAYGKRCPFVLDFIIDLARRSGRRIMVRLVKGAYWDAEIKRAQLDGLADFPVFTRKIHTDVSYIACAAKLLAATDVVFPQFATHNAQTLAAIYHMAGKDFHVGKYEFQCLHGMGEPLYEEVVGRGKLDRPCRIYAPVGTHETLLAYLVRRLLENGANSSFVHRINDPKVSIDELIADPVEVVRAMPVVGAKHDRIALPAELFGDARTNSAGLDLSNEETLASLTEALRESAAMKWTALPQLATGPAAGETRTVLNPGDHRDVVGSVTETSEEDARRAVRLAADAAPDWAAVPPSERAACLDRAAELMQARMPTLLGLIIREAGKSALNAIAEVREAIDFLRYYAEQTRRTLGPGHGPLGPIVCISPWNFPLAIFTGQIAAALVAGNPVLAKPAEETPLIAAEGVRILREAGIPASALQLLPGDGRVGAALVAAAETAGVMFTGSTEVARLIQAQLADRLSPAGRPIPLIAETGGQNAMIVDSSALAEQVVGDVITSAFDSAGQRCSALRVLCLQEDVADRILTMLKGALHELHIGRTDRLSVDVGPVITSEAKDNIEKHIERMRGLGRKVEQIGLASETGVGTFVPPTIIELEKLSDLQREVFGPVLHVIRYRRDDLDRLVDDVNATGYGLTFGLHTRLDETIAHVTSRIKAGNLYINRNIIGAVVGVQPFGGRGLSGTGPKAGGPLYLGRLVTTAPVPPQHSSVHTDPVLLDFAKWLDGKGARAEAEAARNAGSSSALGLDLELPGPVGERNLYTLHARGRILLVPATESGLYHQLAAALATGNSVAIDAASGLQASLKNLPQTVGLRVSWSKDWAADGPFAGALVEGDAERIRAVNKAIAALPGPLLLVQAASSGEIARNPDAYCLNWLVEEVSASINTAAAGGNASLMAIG
The experiment in a line: X-ray crystal structures, noncovalent in the dark. Type of assay: biochemical.

Molecule `O=C(O)C1SCCS1` [compound 4, 1,3-dithiolane-2-carboxylic acid] had an IC50 of 22.4 µM.
